Assay results taken from PubChem BioAssay (NCI).
Values joined by “and” are separate entries in the source; they are usually repeats but may differ in a detail not shown here. Identical values can stand only once.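 All cell lines were grown in 96-well plates and treated with compound for 48 hours. GI50 marks 50% less growth. TGI: total growth inhibition.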

Key:
Assay in all cases: NCI tumour cell line growth inhibition, 48 h
HCC-2998 colon = test system: HCC-2998 colon
A549 NSCLC = test system: A549 NSCLC
UACC-257 melanoma = test system: UACC-257 melanoma
SW-620 colon = test system: SW-620 colon
MCF7 breast = test system: MCF7 breast
U251 CNS = test system: U251 CNS
SK-MEL-28 melanoma = test system: SK-MEL-28 melanoma
RXF 393 renal = test system: RXF 393 renal
MDA-MB-435 = test system: MDA-MB-435
SK-OV-3 ovarian = test system: SK-OV-3 ovarian

Compound | TGI (HCC-2998 colon) | TGI (A549 NSCLC) | TGI (UACC-257 melanoma) | TGI (SW-620 colon) | TGI (MCF7 breast) | TGI (U251 CNS) | TGI (SK-MEL-28 melanoma) | TGI (RXF 393 renal) | TGI (MDA-MB-435) | GI50 (SK-OV-3 ovarian) | TGI (SK-OV-3 ovarian) | GI50 (HCC-2998 colon) | GI50 (A549 NSCLC) | GI50 (UACC-257 melanoma) | GI50 (SW-620 colon) | GI50 (MCF7 breast) | GI50 (U251 CNS) | GI50 (SK-MEL-28 melanoma) | GI50 (RXF 393 renal) | GI50 (MDA-MB-435)
COc1c2occc2c(N)c2ccc(=O)oc12 | > 100 µM | > 100 µM | > 100 µM | > 100 µM | > 100 µM | > 100 µM | > 100 µM | > 100 µM | > 100 µM |  |  |  |  |  |  |  |  |  |  | 
COc1cc2c(cc1OCCCN1CCN(CCCOc3cc4c(cc3OC)C(=O)N3CC(F)(F)C[C@H]3C=N4)CC1)N=C[C@@H]1CC(F)(F)CN1C2=O | 19.4 µM | 43 µM | 31.6 µM | 12.5 µM | 20.2 µM | 14.3 µM | 15.2 µM | 4.52 µM | 11.1 µM | 8.64 µM | > 100 µM | 5.4 µM | 7320 nM | 15.3 µM | 2610 nM | 2090 nM | 3.36 µM | 4.28 µM | 2140 nM | 2940 nM
CSC[C@H](NC(=O)COc1cccc2cnccc12)C(=O)NC(Cc1ccccc1)C(O)C(=O)N1CSC[C@H]1C(=O)NC(C)(C)C (some centres not stated) | > 100 µM | > 100 µM | > 100 µM | > 100 µM | > 100 µM | > 100 µM | > 100 µM | 99.8 µM | > 100 µM |  | > 100 µM |  |  |  |  |  |  |  |  | 
COC(=O)c1c2c(c(C)[n+]([O-])c1C)C(=O)C(NCc1ccc(Br)cc1)=CC2=O | 4.83 µM |  |  |  | 3.21 µM | 6.01 µM | > 100 µM | 5.96 µM | 2.96 µM |  |  | 1.88 µM |  |  |  | 1330 nM | 2.14 µM | 4.13 µM | 1990 nM | 1550 nM
C=C(C)C(C1C=C(CCC(C=O)=C(C)C)C(=O)O1)C1(OC)C=C(C)C(=O)O1 (configuration not stated) | > 100 µM | > 100 µM | > 100 µM | > 100 µM | 30.3 µM | > 100 µM | > 100 µM |  | > 100 µM | > 100 µM | > 100 µM | > 100 µM | > 100000 nM | > 100 µM | 39600 nM | 7600 nM | 74.7 µM | > 100 µM |  | > 100000 nM
Nc1nc(Cl)nc2c1ncn2C1CC(O)C(CO)O1 (configuration not stated) | > 100 µM | > 100 µM | 40.4 µM | > 100 µM | > 100 µM | > 96.5 µM | > 100 µM | > 100 µM | > 100 µM |  | > 100 µM |  |  |  |  |  |  |  |  | 540 nM
CNCCCNc1ccnc2cc(Cl)ccc12 | > 100 µM |  |  | 58.8 µM | 83.8 µM | 62.4 µM | 34.6 µM | 65.4 µM | 28.4 µM | 21.9 µM | 60.8 µM | 28.7 µM |  |  | 13200 nM | 23400 nM | 22.5 µM | 15.5 µM | 14500 nM | 14400 nM
CCn1cc(-c2ccnc3[nH]c(-c4cccc(CN(C)C)c4)cc23)c(-c2ccc(NC(=O)N(C)C)cc2)n1 | 21.5 µM and > 10 µM | 16.1 µM and > 10 µM | 21.7 µM and > 10 µM | 13.7 µM and > 10 µM | 19.4 µM and > 10 µM | 19.1 µM and > 10 µM | 17.1 µM and > 10 µM | 5.54 µM and > 10 µM | 21.4 µM and > 10 µM | 2.16 µM and 3.83 µM | 15.2 µM and > 10 µM | 7.29 µM and > 10 µM | 238 nM and 747 nM | 4.76 µM and > 10 µM | 566 nM and 533 nM | 487 nM and 312 nM | 2.34 µM and 4.03 µM | 3.45 µM and > 10 µM | 356 nM and 1180 nM | 4770 nM and > 10000 nM
CCN(CCNS(C)(=O)=O)c1ccc(N)c(C)c1 | 33.9 µM | 51 µM | 27.1 µM | 5.31 µM | 27.2 µM | 32.5 µM | 27.4 µM | 8.85 µM | 6.91 µM | 17.9 µM | 32 µM | 16.8 µM | 25000 nM | 13.4 µM | 2250 nM | 4300 nM | 18.1 µM | 13.4 µM | 2710 nM | 2750 nM
C=C(C)[C@@H]1CC[C@]2(CN)CC[C@]3(C)[C@H](CC[C@@H]4[C@@]5(C)CCCNC(C)(C)[C@@H]5CC[C@]43C)[C@@H]12 |  | 3.71 µM | 4.35 µM | 3.05 µM | 2.7 µM | 3.33 µM | 3.38 µM | 3.49 µM | 2.98 µM | 1.82 µM | 3.4 µM |  | 1950 nM | 2.09 µM | 1530 nM | 1270 nM | 1.8 µM | 1.74 µM | 1750 nM | 1600 nM
O=c1cccc(C#CC#C[C@@H]2O[C@H]2CO)o1 | 0.55 µM | 4.8 µM | 4.52 µM | 3.77 µM | 1.36 µM | 3.07 µM | 1.36 µM | 3.98 µM | 4.56 µM | 4.05 µM | 12.6 µM | 0.217 µM | 2250 nM | 2.17 µM | 746 nM | 525 nM | 1.46 µM | 0.27 µM | 1770 nM | 2120 nM
CN(C)CCN1CCC(Cc2ccccc2)CC1 | > 80 µM | > 80 µM | > 80 µM | > 80 µM | > 80 µM | > 80 µM | > 80 µM | > 80 µM | > 80 µM | > 80 µM | > 80 µM | > 80 µM | > 80000 nM | > 80 µM | > 80000 nM | > 80000 nM | > 80 µM | > 80 µM | > 80000 nM | > 80000 nM
CCN(Cc1c(F)cccc1OC)c1ccc(CO)c(Cl)c1 | 22.3 µM | 23.1 µM | 0.226 µM | > 77 µM | 16.1 µM | 26.7 µM | 34.3 µM | 25.3 µM | 39 µM | 3.65 µM | 19.9 µM | 7.33 µM | 2350 nM | 0.0523 µM | 714 nM | 165 nM | 0.716 µM | 14.7 µM | 10900 nM | 16000 nM
COC(=O)c1c(C)cc(OC)c(C/C=C(\C)CCCc2coc(C=C(C)C)c2)c1OC | > 100 µM | > 100 µM | > 100 µM | > 100 µM | > 100 µM | > 100 µM | > 100 µM |  | > 100 µM |  |  |  |  |  |  |  |  |  |  | 
Cc1cc(C(=O)CSC(=S)SC(C)(C)C)ccc1Cl | 30.3 µM | 50 µM | 34.4 µM | 68.3 µM | > 100 µM | 28.3 µM | 35.6 µM | 29 µM | 91.1 µM |  | 94.5 µM |  |  |  |  |  |  |  |  | 
